Test results as given in paper PMC7156724, “Potent BRD4 inhibitor suppresses cancer cell-macrophage interaction” (Nature Communications, 2020).
Several values for one entry are separate records, joined by “and”; a condition that tells them apart may be missing. Equal values may be shown once.

Key:
[1] = test system: B16F10 mouse melanoma; test: B16F10 mouse melanoma syngeneic model tumor growth; type: in vivo, C57BL/6 mice; conditions: B16F10 mouse melanoma, once daily 11 days, NHWD-870-HCl
Excerpt: PO, oral administration; QD, once daily; BID, twice daily. b–d Tumor growth curves for A2780 ovarian tumor (n = 5) (b), TMD8 large B cell lymphoma (n = 6) (c), and B16F10 melanoma (n = 5) (d) bearing mice treated with the indicated compounds once daily for 11-21 days. e, f Tumor growth curves for A375 melanoma (n = 6) (e), and patient-derived xenograft (PDX) of melanoma (n = 5) (f) bearing mice treated with the indicated compounds once daily (5 days on, 2 days off) for 21 days. For d–f, NHWD-870 used is NHWD-870-HCl synthesized using Suzuki coupling route. Data are presented as mean ± SEM in (a, b, d, f) and mean + SEM in (c, e). p values were calculated using two-tailed, unpaired t tests. *p < 0.05; **p < 0.01; ***p < 0.001. Source data are provided as a Source Data file.
(§1) 4–6 weeks old female BALB/c nude mice were used for most experiments, with the exception of 6–8 weeks old female C57BL/6 mice were used for B16F10 experiments, and 6–8 weeks old male BALB/c nude mice and SD rats were used for pharmacokinetic experiments. All animals were purchased from Shanghai SIPPR-Bk Lab Animal Co., Ltd. All animals were housed under a regimen of 12 h light/12 h dark cycles and specific pathogen-free conditions. 5×10^6 NCI-H526, ES-2, MDA-MB231, A2780, A375, B16F10, and TMD-8 cells (0.1 ml) were injected subcutaneously into female nude mice. The melanoma patient-derived xenograft model was derived from a human melanoma sample (BRAF, NARS and NF1 wild type, and p53 mutant) removed from a patient in Xiangya Hospital. Surgically removed tumor fragments were implanted subcutaneously into female NSG mice. When the tumors grew to ~1000 mm^3, they were harvested and cryopreserved or immediately re-implanted for expansion or experiments. Mouse body weight and tumor sizes were measured every 3 days. Once the tumors grew to 150–200 mm^3, mice were treated with the compounds as described in the Figures. 1 × 10^6 A2780 cells (1 ml) were injected into the abdominal cavity of nude mice. Ascitic volume and tumor weight were measured by an electronic balance. All the procedures were evaluated and approved by the Institutional Animal Care and Use Committee of Central South University and Yale University.

[2] = test system: ES-2 ovarian cancer; test: ES-2 ovarian tumor xenograft growth; type: in vivo, mouse
Protocol: as §1
Supplementary Figure 9. […]
PO, oral administration; QD, once daily; BID, twice daily; D, day. (c,d) Tumor growth curves for ES2 ovarian tumor (c), MDA-MB231 breast tumor (d) bearing mice treated with the indicated compounds for 21 days. Compounds were orally administrated once daily. Data are presented as mean ± SEM from 6 different mice. p values were calculated using two-tailed, unpaired t tests.
**, p<0.01; ***, p<0.001. Source data are provided as a Source Data file. […]

[3] = test system: TAMs (CD11b+F4/80+ cells) in A375 melanoma model; test: FACS analysis of TAMs in A375 tumors; type: in vivo, mouse; conditions: day 21, FACS
Protocol: Flow cytometry analyses were performed using antibodies listed in Supplementary Table 8. For cell surface markers, mouse TAM suspensions were stained with mouse APC-CD45, FITC-CD11b, PE-F4/80 or APC-F4/80, CD68, and PE-CD206 antibodies for 15 min on ice. For Ki67 staining, cells were fixed in 4% paraformaldehyde and stained with FITC-Ki67. Isotype matching antibody served as the negative control. Flow cytometry was performed on a FACSCalibur (BD Biosciences). Data were analyzed with BD CellQuest Pro software version 5.1.
(a,b) Tumors from A375 tumor bearing mice in Figure 3e were harvested at day 21 and stained with anti-CD45, CD11b, F4/80, CD68 and Ki67 followed by FACS analysis. Shown are representative FACS plots (a ) and quantification of the percentage of CD11b+F4/80+ and CD11b+F4/80+CD68+Ki67+ cells (b). Data are presented as mean ± SEM from 5 different mice. p values were calculated using two-tailed, unpaired t tests.
**, p<0.01; ***, p<0.001. (c,d) Tumors from mice described in Figure 4e were harvested at day 45 and stained […]

[4] = ES-2, 1mg/kg p.o. QD x 21D, day 0, group AVG
[5] = ES-2, 1mg/kg p.o. QD x 21D, day 0, individual animals
[6] = ES-2, 1mg/kg p.o. QD x 21D, day 4, group AVG
[7] = ES-2, 1mg/kg p.o. QD x 21D, day 4, individual animals
[8] = ES-2, 1mg/kg p.o. QD x 21D, day 7, group AVG
[9] = ES-2, 1mg/kg p.o. QD x 21D, day 7, individual animals
[10] = ES-2, 1mg/kg p.o. QD x 21D, day 11, group AVG
[11] = ES-2, 1mg/kg p.o. QD x 21D, day 11, individual animals
[12] = ES-2, 1mg/kg p.o. QD x 21D, day 14, group AVG
[13] = ES-2, 1mg/kg p.o. QD x 21D, day 14, individual animals
[14] = ES-2, 1mg/kg p.o. QD x 21D, day 17, group AVG
[15] = ES-2, 1mg/kg p.o. QD x 21D, day 17, individual animals
[16] = ES-2, 1mg/kg p.o. QD x 21D, day 20, group AVG
[17] = ES-2, 1mg/kg p.o. QD x 21D, day 20, individual animals
[18] = ES-2, 3mg/kg p.o. QD x 21D, day 0, group AVG
[19] = ES-2, 3mg/kg p.o. QD x 21D, day 0, individual animals
[20] = ES-2, 3mg/kg p.o. QD x 21D, day 4, group AVG
[21] = ES-2, 3mg/kg p.o. QD x 21D, day 4, individual animals
[22] = ES-2, 3mg/kg p.o. QD x 21D, day 7, group AVG
[23] = ES-2, 3mg/kg p.o. QD x 21D, day 7, individual animals
[24] = ES-2, 3mg/kg p.o. QD x 21D, day 11, group AVG
[25] = ES-2, 3mg/kg p.o. QD x 21D, day 11, individual animals
[26] = ES-2, 3mg/kg p.o. QD x 21D, day 14, group AVG
[27] = ES-2, 3mg/kg p.o. QD x 21D, day 14, individual animals
[28] = ES-2, 3mg/kg p.o. QD x 21D, day 17, group AVG
[29] = ES-2, 3mg/kg p.o. QD x 21D, day 17, individual animals
[30] = ES-2, 3mg/kg p.o. QD x 21D, day 20, group AVG
[31] = ES-2, 3mg/kg p.o. QD x 21D, day 20, individual animals

SMILES: Cc1nnn(C)c1-c1cnc2c3c4cnn(C)c4ccc3n([C@H](c3ccccc3)C3CCOCC3)c2c1 [NHWD-870]
- effect on tumor growth [1]: very strong tumor inhibitive effects
- % Tumor growth, AVG [2, 4]: 0%
- Tumor volume, AVG [2, 4]: 182.834 mm^3
- % Tumor growth [2, 5]: 0%
- Tumor volume [2, 5]: 161.981 mm^3 and 208.246 mm^3 and 257.236 mm^3 and 142.384 mm^3 and 223.655 mm^3 and 103.5 mm^3
- % Tumor growth, AVG [2, 6]: 71.8081%
- Tumor volume, AVG [2, 6]: 319.202 mm^3
- % Tumor growth [2, 7]: 19.7778% and 126.134% and 74.5915% and 55.5126% and 76.849% and 77.9831%
- Tumor volume [2, 7]: 194.017 mm^3 and 470.917 mm^3 and 449.112 mm^3 and 221.425 mm^3 and 395.531 mm^3 and 184.213 mm^3
- % Tumor growth, AVG [2, 8]: 143.924%
- Tumor volume, AVG [2, 8]: 449.139 mm^3
- % Tumor growth [2, 9]: 108.101% and 224.596% and 137.285% and 85.7809% and 134.14% and 173.642%
- Tumor volume [2, 9]: 337.084 mm^3 and 675.959 mm^3 and 610.381 mm^3 and 264.522 mm^3 and 523.665 mm^3 and 283.22 mm^3
- % Tumor growth, AVG [2, 10]: 266.816%
- Tumor volume, AVG [2, 10]: 666.569 mm^3
- % Tumor growth [2, 11]: 228.373% and 360.792% and 253.375% and 196.866% and 222.989% and 338.501%
- Tumor volume [2, 11]: 531.902 mm^3 and 959.584 mm^3 and 909.007 mm^3 and 422.689 mm^3 and 722.381 mm^3 and 453.85 mm^3
- % Tumor growth, AVG [2, 12]: 321.081%
- Tumor volume, AVG [2, 12]: 765.856 mm^3
- % Tumor growth [2, 13]: 250.605% and 403.815% and 289.634% and 267.746% and 320.675% and 394.009%
- Tumor volume [2, 13]: 567.913 mm^3 and 1049.18 mm^3 and 1002.28 mm^3 and 523.611 mm^3 and 940.859 mm^3 and 511.301 mm^3
- % Tumor growth, AVG [2, 14]: 435.897%
- Tumor volume, AVG [2, 14]: 1001.66 mm^3
- % Tumor growth [2, 15]: 362.904% and 591.91% and 468.225% and 329.053% and 437.775% and 425.513%
- Tumor volume [2, 15]: 749.817 mm^3 and 1440.88 mm^3 and 1461.68 mm^3 and 610.902 mm^3 and 1202.76 mm^3 and 543.908 mm^3
- % Tumor growth, AVG [2, 16]: 569.584%
- Tumor volume, AVG [2, 16]: 1249.88 mm^3
- % Tumor growth [2, 17]: 729.742% and 506.506% and 450.639% and 539.702% and 621.332%
- Tumor volume [2, 17]: 1727.91 mm^3 and 1560.15 mm^3 and 784.021 mm^3 and 1430.72 mm^3 and 746.582 mm^3
- % Tumor growth, AVG [2, 18]: 0%
- Tumor volume, AVG [2, 18]: 180.514 mm^3
- % Tumor growth [2, 19]: 0%
- Tumor volume [2, 19]: 100.979 mm^3 and 154.514 mm^3 and 151.014 mm^3 and 168.003 mm^3 and 255.303 mm^3 and 253.274 mm^3
- % Tumor growth, AVG [2, 20]: 106.339%
- Tumor volume, AVG [2, 20]: 355.904 mm^3
- % Tumor growth [2, 21]: 103.958% and 55.5923% and 228.844% and 138.521% and 84.9035% and 26.2158%
- Tumor volume [2, 21]: 205.955 mm^3 and 240.412 mm^3 and 496.599 mm^3 and 400.722 mm^3 and 472.064 mm^3 and 319.672 mm^3
- % Tumor growth, AVG [2, 22]: 146.015%
- Tumor volume, AVG [2, 22]: 424.47 mm^3
- % Tumor growth [2, 23]: 172.578% and 87.9551% and 265.997% and 159.587% and 128.487% and 61.4849%
- Tumor volume [2, 23]: 275.247 mm^3 and 290.417 mm^3 and 552.706 mm^3 and 436.115 mm^3 and 583.334 mm^3 and 408.999 mm^3
- % Tumor growth, AVG [2, 24]: 196.378%
- Tumor volume, AVG [2, 24]: 514.744 mm^3
- % Tumor growth [2, 25]: 265.602% and 115.285% and 217.088% and 283.945% and 177.512% and 118.838%
- Tumor volume [2, 25]: 369.182 mm^3 and 332.645 mm^3 and 478.846 mm^3 and 645.04 mm^3 and 708.495 mm^3 and 554.259 mm^3
- % Tumor growth, AVG [2, 26]: 274.736%
- Tumor volume, AVG [2, 26]: 656.818 mm^3
- % Tumor growth [2, 27]: 256.941% and 190.731% and 428.695% and 356.714% and 248.463% and 166.876%
- Tumor volume [2, 27]: 360.436 mm^3 and 449.22 mm^3 and 798.401 mm^3 and 767.293 mm^3 and 889.635 mm^3 and 675.926 mm^3
- % Tumor growth, AVG [2, 28]: 372.557%
- Tumor volume, AVG [2, 28]: 841.506 mm^3
- % Tumor growth [2, 29]: 349.385% and 221.259% and 495.296% and 524.547% and 433.889% and 210.963%
- Tumor volume [2, 29]: 453.785 mm^3 and 496.39 mm^3 and 898.977 mm^3 and 1049.26 mm^3 and 1363.03 mm^3 and 787.588 mm^3
- % Tumor growth, AVG [2, 30]: 570.165%
- Tumor volume, AVG [2, 30]: 1173.35 mm^3
- % Tumor growth [2, 31]: 589.68% and 492.445% and 716.71% and 706.345% and 598.649% and 317.161%
- Tumor volume [2, 31]: 696.433 mm^3 and 915.41 mm^3 and 1233.34 mm^3 and 1354.69 mm^3 and 1783.67 mm^3 and 1056.56 mm^3
- effect on tumor growth ([2]; ES-2 ovarian cancer, oral once daily 21 days): strong tumor-suppressive effects
- number of TAMs (CD11b+F4/80+ cells) or proliferating TAMs [3]: decreased the number of TAMs
